Experimental data published in paper PMC7481406, “Bifunctional supramolecular nanofiber inhibits atherosclerosis by enhancing plaque stability and anti-inflammation in apoE^-/- mice” (Theranostics, 2020).
Where a SMILES comes first, the peptide text is derived from it. [ ]: non-standard residue; d: D form. The star is where a group is joined. Naproxen = COc1ccc2cc([C@H](C)C(=O)*)ccc2c1; Acetyl(2-naphthyl) = O=C(Cc1ccc2ccccc2c1)*

Experiments:
[1] = Body weight and serum lipid profile; format: in vivo, mouse; conditions: for HDL-C / LDL-C / TG (triglyceride) / Total-C (serum total cholesterol): serum
Text: (§1) All animal studies were approved by the Animal Ethics Committee of Nankai University and followed the Tianjin Committee of Use and Care of Laboratory Animals. Male apoE^‑/‑ mice (~22 g bodyweight, ~8 weeks old) were purchased from the Beijing Vital River Laboratory Animal Technology Co., Ltd, which were used to set up the atherosclerotic model, as previously described. ApoE^-/- mice were randomly assigned into six groups (15 per group) and fed with HFD (21% fat plus 0.5% cholesterol; Mediscience, Ltd, Jiangsu, China; Cat No. MD12015A) for 16 weeks. […] At the end of the experiment, all mice were euthanatized by an overdose of 2,2,2-tribromoethanol (640 mg/kg, IP injection), followed by collection of aortas, blood, and peritoneal macrophages. Serum was prepared to determine levels of TNF-α, IL-1β and IL-6 by ELISA kits purchased from ABclonal, Inc. (Wuhan, China). The en face aortas were used to prepare aortic root cross sections followed by determination of en face and sinus lesions with Oil Red O staining. All the images were obtained with a microscope and quantified lesion areas in en face aorta by a computer-assisted image analysis protocol (Photoshop CS6). Necrotic core area, fibrous cap area, expression of MOMA-2, CD68, and α-SMA protein in lesion were determined by H&E and immunofluorescent staining with aortic root cross sections.

[2] = target: recombinant human Insulin-like Growth Factor-I Receptor (rhIGF-1R) (Homo sapiens, UniProt P08069); assay: Microscale thermophoresis binding to rhIGF-1R; conditions: for dissociated constant (KD) with rhIGF-1R: microscale thermophoresis, NT-647 labelled rhIGF-1R, PBS with 0.05% Tween 20 pH 7.4, compound 0.054 nM to 2 μM
recombinant human Insulin-like Growth Factor-I Receptor (rhIGF-1R), sequence (P08069 31-1367): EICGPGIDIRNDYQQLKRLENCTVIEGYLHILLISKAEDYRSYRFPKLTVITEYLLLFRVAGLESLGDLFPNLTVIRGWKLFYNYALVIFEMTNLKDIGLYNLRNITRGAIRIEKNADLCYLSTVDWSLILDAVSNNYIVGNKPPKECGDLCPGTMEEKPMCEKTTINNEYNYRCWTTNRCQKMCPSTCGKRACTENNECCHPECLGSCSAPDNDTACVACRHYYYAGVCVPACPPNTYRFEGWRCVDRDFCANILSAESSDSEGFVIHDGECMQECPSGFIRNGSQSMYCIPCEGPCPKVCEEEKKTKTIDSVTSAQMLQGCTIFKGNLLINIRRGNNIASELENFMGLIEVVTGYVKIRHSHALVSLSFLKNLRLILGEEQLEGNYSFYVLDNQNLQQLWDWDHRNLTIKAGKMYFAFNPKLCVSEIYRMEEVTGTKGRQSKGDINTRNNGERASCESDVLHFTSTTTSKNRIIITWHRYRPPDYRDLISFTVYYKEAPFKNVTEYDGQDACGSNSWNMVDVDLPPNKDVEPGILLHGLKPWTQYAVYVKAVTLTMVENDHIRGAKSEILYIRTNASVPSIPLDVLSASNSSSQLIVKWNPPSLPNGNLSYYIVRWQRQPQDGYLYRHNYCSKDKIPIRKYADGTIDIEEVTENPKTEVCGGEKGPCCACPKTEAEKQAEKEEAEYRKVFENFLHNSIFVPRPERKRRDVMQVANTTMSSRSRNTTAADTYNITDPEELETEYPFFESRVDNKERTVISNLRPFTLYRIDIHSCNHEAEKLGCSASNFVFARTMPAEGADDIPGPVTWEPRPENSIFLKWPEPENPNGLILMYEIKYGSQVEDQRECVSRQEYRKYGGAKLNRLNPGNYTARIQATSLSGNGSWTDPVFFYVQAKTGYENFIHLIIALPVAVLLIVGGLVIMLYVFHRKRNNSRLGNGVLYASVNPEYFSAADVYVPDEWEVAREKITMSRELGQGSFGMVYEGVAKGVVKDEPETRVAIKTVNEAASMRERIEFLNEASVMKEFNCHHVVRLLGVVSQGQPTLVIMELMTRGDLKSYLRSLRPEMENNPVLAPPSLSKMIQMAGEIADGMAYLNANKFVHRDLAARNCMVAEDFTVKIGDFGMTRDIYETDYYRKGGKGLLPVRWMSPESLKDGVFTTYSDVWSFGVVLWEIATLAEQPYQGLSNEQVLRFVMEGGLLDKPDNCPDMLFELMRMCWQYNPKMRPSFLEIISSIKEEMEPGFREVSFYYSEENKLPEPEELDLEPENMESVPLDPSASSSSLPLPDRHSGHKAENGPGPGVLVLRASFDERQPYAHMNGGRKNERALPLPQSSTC
Text: (§2) The transparency of the prepared hydrogel in the visible light range of 380 nm-780 nm is detected by UV-Vis spectroscopy (Lambda 35 UV/Vis Spectrometer, Perkin-Elmer). […] Therefore, we conducted microscale thermophoresis experiments to determine their binding affinity to recombinant human Insulin-like Growth Factor-I Receptor (rhIGF-1R).
rhIGF-1R was labeled with the fluorescent dye NT-647 using a Monolith NT™ Protein Labelling Kit (cysteine-reactive) (NanoTemper Technologies, Germany). PBS buffer containing 0.05% Tween 20 (pH 7.4) was used as the assay buffer. For the interaction experiments of fluorescent proteins with Compound 1, 2, 3or 4, the concentration of labeled proteins were kept constant, while the concentration of Compound 1, 2, 3or 4 varied from 0.054 nM to 2 μM. Then, the solution of fluorescent proteins was mixed with solutions containing different concentrations of Compound 1, 2, 3or 4 at 1:1 volume ratio. After a short incubation time, the samples were loaded into MST NT.115 standard glass capillaries and the analysis was performed using the Monolith NT.115 system (NanoTemper Technologies, Germany). The KD value was calculated using the NanoTemper software package.

[3] = tested on: peritoneal macrophages; assay: Macrophage polarization and LPS-induced inflammation in vitro; format: cell-based, mouse
Description: (§3) Human aortic smooth muscle cells (HASMCs) were cultured in a completed DMEM F12 medium (10% fetal bovine serum, 50 μg/mL penicillin, and 50 μg/mL streptomycin). Peritoneal macrophages were cultured in complete RPMI1640 medium (10% fetal bovine serum, 50 μg/mL penicillin, 50 μg/mL streptomycin and 2 mM glutamine). HASMCs or peritoneal macrophages were seeded on a 6-well plate at the density of 3×10^5 cells per well before treatment. […] After treatment, total cellular proteins were extracted from peritoneal macrophages for determination of ABCA1 and ABCG1 by western blot, as previously described. Expression of CD68, SM22α, iNOS, CD206, TNF-α, IL-6, and IL-1β mRNA in HASMCs or macrophages was determined by quantitative real-time polymerase chain reaction (qRT-PCR) with total RNA extracted from cells and the primers listed in Table 1 and normalized to GAPDH mRNA levels in the corresponding samples.

[4] = tested on: ABCA1 and ABCG1 in peritoneal macrophages; assay: ABCA1 and ABCG1 expression by western blot; format: cell-based, mouse; conditions: 10 nM overnight, versus GAPDH, n=5
Description: as §3

[5] = tested on: apoE-/- mice; assay: Inflammation and macrophage phenotype in vivo (aortic root immunofluorescence, serum ELISA, aorta qRT-PCR); parameters: species or system mouse
Text: as §1

[6] = tested on: HASMCs; assay: VSMC switch to macrophage-like phenotype (αSMA immunofluorescence, CD68 and SM22α qRT-PCR); format: cell-based, human; conditions: n=5
Description: as §3

[7] = tested on: peritoneal macrophage; assay: Cholesterol efflux of peritoneal macrophage; format: cell-based, mouse; conditions: n=5, Figures S14 and S15B
Description: page 8: Figure S14. Cholesterol efflux of peritoneal macrophage were assessed after treatment as indicated, n=5. […] Figure S15. Effects of Npx and IGF-1 mimetic peptide on inflammation and cholesterol efflux. (A) qRT-PCR analysis of TNFα and IL-1β in macrophage after indicated treatment, n=5. (B) Cholesterol efflux of peritoneal macrophage were assessed after treatment as indicated, n=5. […]

[8] = tested on: peritoneal macrophages from apoE-/- mice; assay: Foam cell formation, Oil Red O staining after ox-LDL; format: cell-based, mouse; conditions: same molar concentration, after exposure to ox-LDL, >10 lipid droplets per cell, n=5
Description: Human aortic smooth muscle cells (HASMCs) were cultured in a completed DMEM F12 medium (10% fetal bovine serum, 50 μg/mL penicillin, and 50 μg/mL streptomycin). Peritoneal macrophages were cultured in complete RPMI1640 medium (10% fetal bovine serum, 50 μg/mL penicillin, 50 μg/mL streptomycin and 2 mM glutamine). HASMCs or peritoneal macrophages were seeded on a 6-well plate at the density of 3×10^5 cells per well before treatment. […] To assess foam cell formation in vitro, peritoneal macrophages collected from apoE^-/- mice were plated on cover slips in 12-well plates. Subsequently, induction and determination of foam cells was conducted as previously described.

[9] = tested on: atherosclerotic lesions in apoE-/- mice; assay: Atherosclerotic lesion formation, Oil Red O staining; format: in vivo, mouse; conditions: high-fat diet 16 weeks, s.c. 100 μL of 1 μM weekly, n=15
Description: Male apoE^‑/‑ mice (~22 g bodyweight, ~8 weeks old) were purchased from the Beijing Vital River Laboratory Animal Technology Co., Ltd, which were used to set up the atherosclerotic model, as previously described[66]. ApoE^-/- mice were randomly assigned into six groups (15 per group) and fed with HFD (21% fat plus 0.5% cholesterol; Mediscience, Ltd, Jiangsu, China; Cat No. MD12015A) for 16 weeks. ApoE^-/- mice in the different groups were subcutaneously injected with either saline (100 µL, n=15), IGF-1 protein (1 μM, 100 μL, n=15), H1 (1 μM, 100 μL, n=15), H2 (1 μM, 100 μL, n=15), H3 (1 μM, 100 μL, n=15) or H4 (1 μM, 100 μL, n=15) weekly. At the end of the experiment, all mice were euthanatized by an overdose of 2,2,2-tribromoethanol (640 mg/kg, IP injection), followed by collection of aortas, blood, and peritoneal macrophages. […] The en face aortas were used to prepare aortic root cross sections followed by determination of en face and sinus lesions with Oil Red O staining. All the images were obtained with a microscope and quantified lesion areas in en face aorta by a computer-assisted image analysis protocol (Photoshop CS6).

[10] = tested on: receptor of IGF-1; conditions: earlier report of the same authors; cited from earlier work
Text: Natural and recombinant human IGF-1 proteins (rhIGF-1) are limited in short half-lifes in biological systems and poor tissue retention. […] The C domain of […] in IGF-1 regulates its receptor binding and directly affects the biological activity of IGF-1. Nishida et al. reported that the C-domain of IGF-1 can promote the healing of corneal epithelial wounds. They screened a series of 12-amino acids of GST fusion protein and obtained mutants whose various ...

[11] = Rheometer mechanical properties of hydrogels; format: physicochemical; conditions: hydrogel 1.0 wt%
Description: We then used a rheometer to characterize the mechanical properties of the hydrogels. […] The storage modulus (G') of the four hydrogels was approximately an order of magnitude higher than their loss modulus (G''), which indicated the formation of true gels. ApoE^-/- mice were then subcutaneously (s.c.) injected with 100 μL of the different hydrogels or natural IGF-1 protein solution per week and simultaneously fed a high-fat diet for 16 weeks. Atherosclerotic lesion formation was assessed after 16 weeks.

[12] = TEM of nanofibers in hydrogels; format: physicochemical; conditions: hydrogel in PBS, 0.5 wt%
[13] = Transparency of hydrogels by UV-Vis spectroscopy; format: physicochemical; conditions: visible light range 380 nm-780 nm, hydrogel in PBS pH 7.4, 0.5 wt%
Text: as §2

[14] = male apoE-/- mice, HFD 16 weeks, s.c. weekly, mean ± SD, n=15
[15] = double immunofluorescence staining with MOMA2, n=15
[16] = 10 nM with ox-LDL 50 µg·mL^-1 overnight, qRT-PCR, versus ox-LDL-treated cells
[17] = peritoneal macrophages, LPS 100 ng·mL^-1 2 h then 10 nM overnight, immunofluorescent staining, versus control, n=5

Compound: COc1ccc2cc([C@H](C)C(=O)N[C@H](Cc3ccccc3)C(=O)N[C@H](Cc3ccccc3)C(=O)NCC(=O)N[C@@H](CO)C(=O)N[C@@H](CO)C(=O)N[C@@H](CO)C(=O)N[C@@H](CCCNC(=N)N)C(=O)O)ccc2c1 [Compound H1, Npx-^DF^DFGSSSR] (Naproxen-[dF][dF]GSSSR-OH)
- BW ([1]; mouse, in vivo, sc, SD): 26.49 ± 2.14 g

Compound: COc1ccc2cc([C@H](C)C(=O)N[C@@H](Cc3ccccc3)C(=O)N[C@@H](Cc3ccccc3)C(=O)NCC(=O)N[C@@H](CO)C(=O)N[C@@H](CO)C(=O)N[C@@H](CO)C(=O)N[C@@H](CCCNC(=N)N)C(=O)O)ccc2c1 [Compound H2, Npx-FFGSSSR] (Naproxen-FFGSSSR-OH)
- BW ([1]; mouse, in vivo, sc, SD): 25.55 ± 2.31 g

Compound: N=C(N)NCCC[C@H](NC(=O)[C@H](CO)NC(=O)[C@H](CO)NC(=O)[C@H](CO)NC(=O)CNC(=O)[C@H](Cc1ccccc1)NC(=O)[C@H](Cc1ccccc1)NC(=O)Cc1ccc2ccccc2c1)C(=O)O [Compound H3, Nap-FFGSSSR] ({Acetyl(2-naphthyl)}-FFGSSSR-OH)
- BW [1, 14]: 26.79 ± 1.77 g
- Kd [2]: 230 nM

Compound: COc1ccc2cc([C@H](C)C(=O)O)ccc2c1 [Npx, naproxen, reference compound]
- LPS-induced inflammation, components compared (Figure S15A) ([3]; macrophage in presence of LPS, qRT-PCR of TNF and IL-1, n=5): partly blocked LPS-induced inflammation

Compound: Insulin-like growth factor (IGF)-1 [IGF-1]
- expression of ABCA1 and ABCG1 in macrophages [4]: significantly enhanced expression
- Arg1 expression in aortic root macrophages in vivo [5, 15]: induced the expression of Arg1
- CCR7 expression in aortic root macrophages in vivo [5, 15]: inhibited the expression of CCR7
- expression of proinflammatory cytokines in aortas ([5]; qRT-PCR of TNF-α and IL-6, n=8): reduced the expression of these cytokines
- α-SMA expression in VSMCs ([6]; 10 nM overnight, immunofluorescent staining, versus control): expressed more α-SMA
- CD68 expression in VSMCs [6, 16]: less CD68
- SM22α expression in VSMCs [6, 16]: more SM22α
- HDL-C [1, 14]: 2.35 ± 0.89 mM
- LDL-C [1, 14]: 4.08 ± 1.42 mM
- TG (triglyceride) [1, 14]: 0.51 ± 0.13 mM
- Total-C (serum total cholesterol) [1, 14]: 15.47 ± 2.76 mM
- BW ([1]; mouse, in vivo, sc, SD): 25.04 ± 1.83 g
- cholesterol efflux from peritoneal macrophage [7]: more effective than Npx
- Arg1 expression in macrophages in vitro [3, 17]: more Arg1
- CCR7 expression in macrophages in vitro [3, 17]: expressed less CCR7
- number of foam cells [8]: 22.0%
- decrease in plaque size at the aortic root [9]: ~ 53%
- reduction in lesion area, en face aorta [9]: ~ 42%

Compound: Nap-FFGGYGSSSRRAPQT [self-assembling peptide reported earlier by the authors]
- binding affinity to the receptor of IGF-1 [10]: high binding affinity

Compound: Nap-FFGSRSS [Compound H4, control without naproxen and with a scrambled tetrapeptide of SSSR]
- HDL-C [1, 14]: 2.34 ± 0.76 mM
- LDL-C [1, 14]: 4.45 ± 1.23 mM
- TG (triglyceride) [1, 14]: 0.52 ± 0.08 mM
- Total-C (serum total cholesterol) [1, 14]: 16.63 ± 2.05 mM
- BW ([1]; mouse, in vivo, sc, SD): 26.81 ± 2.06 g
- storage modulus (G') [11]: 100 Pa
- diameter of entangled nanofibers [12]: ~17.3 nm
- number of foam cells [8]: almost no decrease
- dissociated constant (KD) with rhIGF-1R [2]: Non KD
- dissociated constant (KD) with rhIGF-1R ([2]; listed as Compound 4): no binding at all
- transparency (mean transmittance) of hydrogel [13]: 71.08%
